Values quoted from earlier work, collected in US11021437B2, “Pharmaceutical formulation for sublingual or buccal delivery of epinephrine or a pro-drug thereof” (Iono Pharma, LLC, priority 2016, dated 2021).

Assays:
[1] = 0.01 mg/kg subcutaneously in the deltoid region
[2] = in vivo

SMILES	time to maximum plasma epinephrine concentration [1] [min]	delay before onset of seizure [2] [min]	t1/2 hydrolysis in vitro [days]	t1/2 oxidation in vitro [days]
CNC[C@H](O)c1ccc(O)c(O)c1 [Epinephrine]	≤ 34 ± 14			
CNCC(O)c1ccc(OC(=O)C(C)(C)C)c(OC(=O)C(C)(C)C)c1 (stereo not shown) [Structure 7D, 4-(1-hydroxy-2-(methylamino)ethyl)-1,2-phenylene bis(2,2-dimethylpropanoate)]		8 to 10	700	300
